# Data as given in patent US20170172955A1, “Treatment of Mixed Dyslipidemia” (priority 2015, published 2017).
# Like-named read-outs stand apart in the source and are kept apart here.
# How the values were obtained:
# CYP2E1 = CYP2E1 (Homo sapiens, UniProt P05181); test: biochemical
# Procedure: (§1) Human livers, HLM141, HLM143, and HLM144 were selected from the University of Washington Human Liver Bank for this study. […] The actual concentrations used for each of the other probes are specified below. […] The seven isoforms and the metabolic pathway of each of the probes used to monitor specific isoform activity are listed below.
# CYP2E1: The formation of p-nitrocatechol from p-nitrophenol (40 μM). Amounts of product formed are monitored by HPLC.
# CYP2D6 = CYP2D6 (Homo sapiens, UniProt P10635); test: biochemical
# Sequence of CYP2D6 (P10635 whole entry): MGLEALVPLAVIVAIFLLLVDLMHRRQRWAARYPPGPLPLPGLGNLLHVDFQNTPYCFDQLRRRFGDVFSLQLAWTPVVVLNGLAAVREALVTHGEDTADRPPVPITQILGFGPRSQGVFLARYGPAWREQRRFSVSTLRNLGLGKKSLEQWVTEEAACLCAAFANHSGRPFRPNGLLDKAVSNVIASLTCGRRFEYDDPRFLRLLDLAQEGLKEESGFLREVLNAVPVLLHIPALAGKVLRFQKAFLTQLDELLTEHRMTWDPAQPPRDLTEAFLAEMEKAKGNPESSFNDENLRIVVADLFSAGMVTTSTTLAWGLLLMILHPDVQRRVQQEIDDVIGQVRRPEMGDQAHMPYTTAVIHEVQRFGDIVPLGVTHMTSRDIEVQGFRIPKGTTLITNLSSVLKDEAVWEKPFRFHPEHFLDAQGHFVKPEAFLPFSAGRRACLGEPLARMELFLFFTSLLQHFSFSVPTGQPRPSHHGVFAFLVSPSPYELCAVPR
# Procedure: as §1
# CYP2D6: The O-demethylation of dextromethorphan (5 μM). The reaction is monitored by high performance liquid chromatography (HPLC) using florescence detection.
# primary rat hepatocytes = test: Cholesterol and triglyceride synthesis ([14C]acetate) in primary rat hepatocyte cultures; assay type: cell-based; settings: for % Change in Synthesis, Cholesterol ± SEM / % Change in Synthesis, Triglyceride ± SEM: relative to vehicle cells
# Procedure: At end of labeling period, cells were washed with room temperature D-PBS, 2.0 mL per well and the reaction is stopped with 1.0 mL 0.75 N HCl. Cells were scraped and transferred to 15×45 mm glass vial (1 dram size). Wells were washed with 1.0 mL of methanol and added to scraped cells, followed by the addition of 2.0 mL of chloroform. Vials were capped and vortexed for 5 seconds and centrifuged in a Beckman GS 6KR centrifuge at 3,600 rpm for 15 minutes at room temperature to separate phases. The bottom chloroform phase was transferred to new 15×45 mm glass vial, dried down in a […] evaporator at 37° C. under nitrogen gas. Vials were cooled to room temperature and samples resuspended in 130 μL of n-heptane:chloroform, 4:1 by vortexing for 5 seconds. […] Plates were dried for 30 minutes in an 80° C. gravity convection oven, cooled to room temperature, and wrapped in SaranTM Wrap. Plates were exposed overnight to phosphorimager plates, scanned on Typhoon PhosporImager (Molecular Dynamics), and analyzed using Imagequant software (Molecular Dynamics).
# [1] = system: cholesterol and triglyceride synthesis; test: Inhibition of plasma and hepatic cholesterol and triglyceride synthesis in apoB100/Lp(a) mice; assay type: in vivo, mouse
# Procedure: The apoB100/Lp(a) (cross of mice transgenic for human apoB100 and human apo(a)) mice) were obtained from Charles River. There were 8 animals per treatment group. […] Mice were acclimated for a minimum of 7 days to a reverse 12 hour light/12 hour dark cycle prior to administration of the first dose of test drug or vehicle. […] Test drugs and vehicle were given once daily. Thirty minutes after the eighth dose, 12.5 μCi [^14C] sodium acetate was administered. […] Individual plasma samples were acquired by placing whole blood samples into EDTA loaded centrifuge tubes and centrifuged. Plasma was transferred to new tubes and stored at −20° C. until assayed for [^14C] labeled cholesterol. Liver samples were flash frozen in liquid nitrogen and stored at −80° C. until assayed for [^14C] labeled cholesterol and triglycerides. Assay for plasma [^14C] labeled cholesterol. […] Additionally, 0.025 μCi […] (Perkin Elmer Life Sciences Inc. Boston, Mass.) was added to each sample, and to 2 or 3 spike controls in 7-mL scintillation vials, as an extraction internal standard. […] Samples were vortexed and saponified at 75° C. for 1 hour. After the samples cooled […] [^14C] labeled cholesterol was extracted with 2.5 mL petroleum ether per sample and shaken for 10 minutes, and then centrifuged for 10 minutes at 0° C. […] Each sample was then dissolved in 0.25 mL of 2 parts chloroform to 1 part per methanol by sonication. Five mL scintillant was added to each sample and the spike controls for direct [^3H] and [^14C] […] per minute (DPM) recording using a Packard 2500TR Tri-Carb Liquid Scintillation Analyzer. […] Assay for liver [^14C] labeled cholesterol and triglycerides. Frozen liver samples were kept on dry ice during sample weighing procedures and assay preparations. Each sample was homogenized in a solution of ice-cold methanol;0.5 N acetic acid. […] Samples were then vortexed and centrifuged for 20 minutes at 3000 rpm at room temperature to separate the phases. The lower chloroform layer was transferred to new vials. The remaining upper aqueous phase was extracted in like manner with 15 mL chloroform 2 more times. […] The aqueous phase was discarded and the chloroform phase was washed 2 times in like manner with 15 mL 1 part methanol to 1 part water, discarding the aqueous phase. The chloroform samples were evaporated under nitrogen gas, and resuspended in 600 μL chloroform and 30 μL removed for scintillation counting. Sample volumes were adjusted for corrected percent recovery and a calculated volume to load based on total liver weight. Calculated volumes were spotted onto TLC plates and dried in an 80° C. oven. After the plates had cooled to room temperature, they were developed in 102 mL isooctane:diethyl ether:glacial acetic acid, 75:25:2, respectively. Plates were dried in an 80° C. oven and allowed to cool to room temperature, wrapped in plastic wrap, and exposed to the phosphorimager screen. Imagequant software was used to quantitate cholesterol and triglyceride bands.
# fibrinogen = test: Fibrinogen levels in humans, post hoc analysis of study A4141001; assay type: in vivo, human; parameters: Mean Final FIBR / Mean Change FIBR: unit not given here; settings: for Change in Fibrinogen, Difference (Gem - Placebo): MITT; for Fibrinogen Change, Difference (Gem-placebo) / Mean % Change FIBR / Mean Change FIBR / Mean Final FIBR / Fibrinogen Change, LS Mean (SE): subjects with fibrinogen baseline >400 mg/dL
# Procedure: Week 0) and the end (Visit T8, Week 8). Analyses of covariance (ANCOVA) methods used in the original study A4141001 were again utilized in these analyses. For fibrinogen, baseline was defined as the last pretreatment visit, and endpoint was the last visit up to and including the day after last dose of medication. The least-squares means and p-values for change from baseline in fibrinogen were calculated using an ANCOVA model with the effects of baseline lipid value and treatment. Also, medians and p-values for percent change from baseline. […] This, consequently, was the definition for the modified intent-to treat (MITT) population.
# [2] = 100 mg/kg oral once daily, 8 doses
# Sequence of CYP2E1 (P05181 whole entry, canonical isoform): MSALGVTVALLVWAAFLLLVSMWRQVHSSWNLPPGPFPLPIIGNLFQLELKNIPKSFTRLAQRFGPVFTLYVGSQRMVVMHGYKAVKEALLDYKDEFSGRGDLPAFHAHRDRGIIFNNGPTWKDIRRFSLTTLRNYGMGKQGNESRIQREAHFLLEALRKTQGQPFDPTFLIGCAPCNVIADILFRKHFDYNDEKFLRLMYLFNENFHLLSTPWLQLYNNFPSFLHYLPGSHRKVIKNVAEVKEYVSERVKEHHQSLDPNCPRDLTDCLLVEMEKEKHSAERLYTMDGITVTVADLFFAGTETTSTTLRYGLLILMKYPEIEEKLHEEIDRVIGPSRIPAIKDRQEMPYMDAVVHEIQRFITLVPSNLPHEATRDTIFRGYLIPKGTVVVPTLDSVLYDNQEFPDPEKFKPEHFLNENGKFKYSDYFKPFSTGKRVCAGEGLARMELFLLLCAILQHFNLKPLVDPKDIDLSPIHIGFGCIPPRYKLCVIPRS
structure (smiles),measurement,setting,value
"CC(C)(CCCCOCCCCC(C)(C)C(=O)O)C(=O)O [Gemcabene, 6,6′-oxybis(2,2-dimethylhexanoic acid)]",IC50,CYP2E1,> 1.5 mM
same,activity slightly enhanced,"CYP2E1; human, 1500 μM",about 20%
same,IC50,"CYP2E1; human, microsomes",> 1.5 mM
same,IC50,CYP2D6,> 1.5 mM
same,IC50,"CYP2D6; human, microsomes",> 1.5 mM
same,decrease of cholesterol synthesis (± SEM),primary rat hepatocytes; 10 μM,61.5±1.8%
same,reduction of triglyceride synthesis,primary rat hepatocytes; 10 μM,8.9±4.5%
same,"% Change in Synthesis, Cholesterol ± SEM",primary rat hepatocytes; 10 μM,−61.5 ± 1.8%
same,"% Change in Synthesis, Triglyceride ± SEM",primary rat hepatocytes; 10 μM,−8.9 ± 45%^ns
same,decrease of cholesterol synthesis (± SEM),primary rat hepatocytes; 30 μM,90.0±0.8%
same,reduction of triglyceride synthesis,primary rat hepatocytes; 30 μM,72.1±2.9%
same,"% Change in Synthesis, Cholesterol ± SEM",primary rat hepatocytes; 30 μM,−90.0 ± 0.8%
same,"% Change in Synthesis, Triglyceride ± SEM",primary rat hepatocytes; 30 μM,−72.1 ± 2.9%
same,inhibition of cholesterol synthesis as measured in plasma,[1]; 100 mg/kg,60%
same,inhibition of newly synthesized cholesterol in liver tissue,[1]; 100 mg/kg,65%
same,inhibition of newly synthesized triglycerides in liver tissue,[1]; 100 mg/kg,66%
same,"hepatic Cholesterol synthesis ([14C] sodium acetate), % Change from Vehicle",[1]; [2],−65 ± 11 %
same,"hepatic Triglycerides synthesis ([14C] sodium acetate), % Change from Vehicle",[1]; [2],−66 ± 6 %
same,"Change in Fibrinogen, Difference (Gem - Placebo)",fibrinogen; gemcabene 300 mg,−13.0
same,"Change in Fibrinogen, Difference (Gem - Placebo)",fibrinogen; gemcabene 600 mg,−13.6
same,"Change in Fibrinogen, Difference (Gem - Placebo)",fibrinogen; gemcabene 900 mg,−24.3
same,"Fibrinogen Change, Difference (Gem-placebo)",fibrinogen; gemcabene 300 mg,5.0
same,Mean % Change FIBR,fibrinogen; gemcabene 300 mg,6.7%
same,Mean Change FIBR,fibrinogen; gemcabene 300 mg,26.6
same,Mean Final FIBR,fibrinogen; gemcabene 300 mg,454.4
same,"Fibrinogen Change, LS Mean (SE)",fibrinogen; gemcabene 300 mg monotherapy,26.0 (29.3)
same,"Fibrinogen Change, Difference (Gem-placebo)",fibrinogen; gemcabene 600 mg,−62.5
same,Mean % Change FIBR,fibrinogen; gemcabene 600 mg,−9.3%
same,Mean Change FIBR,fibrinogen; gemcabene 600 mg,−41.4
same,Mean Final FIBR,fibrinogen; gemcabene 600 mg,411.0
same,"Fibrinogen Change, LS Mean (SE)",fibrinogen; gemcabene 600 mg monotherapy,−41.5 (28.9)
same,"Fibrinogen Change, Difference (Gem-placebo)",fibrinogen; gemcabene 900 mg,−34.0
same,Mean % Change FIBR,fibrinogen; gemcabene 900 mg,−3.2%
same,Mean Change FIBR,fibrinogen; gemcabene 900 mg,−12.9
same,Mean Final FIBR,fibrinogen; gemcabene 900 mg,435.9
same,"Fibrinogen Change, LS Mean (SE)",fibrinogen; gemcabene 900 mg monotherapy,−13.0 (22.9)
same,Mean % Change FIBR,fibrinogen; gemcabene at any of the doses,−2.2%
same,Mean Change FIBR,fibrinogen; gemcabene at any of the doses,−9.8
same,Mean Final FIBR,fibrinogen; gemcabene at any of the doses,434.1
